Source: US8901072B2, “Glycopeptide and lipoglycopeptide antibiotics with improved solubility” (The Medicines Company, priority 2009, dated 2014)
In brackets after ≈: the same amount, converted by molar mass.

How the values were obtained:
[1] = Solubility in phosphate buffered saline; assay type: physicochemical; conditions: 10 mM phosphate buffered saline (0.138 M NaCl, 2.7 mM KCl), pH 7.4
Description: To a sample of the material of known mass were added known volumes of phosphate buffered saline until complete dissolution is observed. Suspensions were centrifuged for 5 min at 10000 rpm. […] Upon complete dissolution, the solution is diluted until the final concentration is 0.5 mg/mL to ensure that the material remains soluble over the entire range of concentrations.

[2] = test system: S. aureus ATCC 13709; experiment: In vitro antibacterial susceptibility (MIC, broth microdilution); assay type: cell-based; conditions: for MIC against S. aureus ATCC 13709, CAMHB: cation-adjusted Mueller-Hinton broth, 37° C., 18 h; for Antibacterial activity compared with oritavancin 5: deduced from the MIC data of Table 2
Description: Susceptibility of S. aureus strain ATCC13709 to oritavancin (5) and synthesized compounds was determined following the guidelines set by the Clinical and Laboratory Standards Institute (formerly the National Committee for Clinical Laboratory Standards) (M26-A). Compounds were serially diluted two-fold in either DMSO (Oritavancin 5) or in PBS and transferred to cation-adjusted Mueller Hinton broth (CAMHB; Becton Dickinson). 50 μL of compounds diluted in CAMHB was mixed with 100 μL of bacteria diluted in CAMHB in 96-well microtiter plates. The final number of micro-organisms in the assay was 5×10^5 c.f.u. per mL and the final concentration of DMSO in the assay, if present, was 1.25%. All solutions may contain 0.002% Tween as indicated. Assays were set up in duplicate and incubated at 37° C. for 18 h. The concentration of compound that inhibited visible growth was reported as the minimum inhibitory concentration (MIC).

[3] = test system: S. aureus strain ATCC13709; experiment: Neutropenic mouse thigh infection model; assay type: in vivo, mice
Description: The susceptibility of S. aureus strain ATCC13709 to oritavancin (5) and selected synthesized compounds in vivo was evaluated with the well accepted neutropenic mouse thigh infection model (Craig, W. A. et al. Journal of Antimicrobial Chemotherapy (1991), 27 (Suppl. C):29-40). Mice were made neutropenic by treatment with cyclophosphamide (150 and 100 mg/kg of body weight administered intraperitoneally 4 days and 1 day prior to infection). Mice were anesthetized briefly with approximately 4% isoflurane just prior to inoculation. The bacterial suspension (0.1 mL) was injected intramuscularly into each thigh (approximately 10^5 colony forming units (CFU)/thigh). The selected agents were administered in 10% (w/w) β-hydroxypropylcyclodextrin in water at a concentration of 10 mg/mL one hour following bacterial inoculation. The animals were humanely sacrificed by CO2 asphyxiation 24 h postinfection. The entire thigh muscle mass including the bone was homogenized and diluted in 0.9% saline and aliquots were plated on Brain-Heart Infusion agar. Following overnight incubation at 37° C., bacteria were enumerated for each thigh and expressed as log10 CFU per thigh. This was performed over three independent experiments and oritavancin (5) was used as a comparator in each.

| SMILES | Solubility (mg/mL) PBS [1] | MIC against S. aureus ATCC 13709, CAMHB + 0.002% tween [2] [µg/mL] | MIC against S. aureus ATCC 13709, CAMHB + 50% human serum [2] [µg/mL] | MIC against S. aureus ATCC 13709, CAMHB + 50% mouse serum [2] [µg/mL] | MIC against S. aureus ATCC 13709, CAMHB + 50% rat serum [2] [µg/mL] | MIC against S. aureus ATCC 13709, CAMHB [2] [µg/mL] | Antibacterial activity compared with oritavancin 5 [2] | In vivo antibacterial efficacy compared with oritavancin ([3]; deduced from the data of Table 3) | Recovered bacterial titers per thigh, 1 mg/kg ([3]; neutropenic mice, 1 mg/kg one hour after inoculation, 24 h postinfection) [Log10 CFU/thigh] | Recovered bacterial titers per thigh, 10 mg/kg ([3]; neutropenic mice, 10 mg/kg one hour after inoculation, 24 h postinfection) [Log10 CFU/thigh] | Recovered bacterial titers per thigh, 40 mg/kg ([3]; neutropenic mice, 40 mg/kg one hour after inoculation, 24 h postinfection) [Log10 CFU/thigh] |
| --- | --- | --- | --- | --- | --- | --- | --- | --- | --- | --- | --- |
| CNC(CC(C)C)C(=O)NC1C(=O)NC(CC(N)=O)C(=O)NC2C(=O)NC3C(=O)NC(C(=O)NC(C(=O)OCC(=O)NCCCNCCCN)c4cc(O)cc(O)c4-c4cc3ccc4O)C(OC3CC(C)(N)C(O)C(C)O3)c3ccc(c(Cl)c3)Oc3cc2cc(c3OC2OC(CO)C(O)C(O)C2OC2CC(C)(NCc3ccc(-c4ccc(Cl)cc4)cc3)C(O)C(C)O2)Oc2ccc(cc2Cl)C1O (stereo not shown) [Compound 66] | >100 mg/mL | 0.25 | 0.125 | 1 | 0.125 | 2 (≈ 1.02 µM) | within an order of magnitude of that of oritavancin 5 | within the same order of magnitude than oritavancin itself | 8.16 ± 0.49 | 3.96 ± 1.74 | 4.04 ± 0.51 |
| CC(C)CC(C(=O)NC1C(=O)NC(CC(N)=O)C(=O)NC2C(=O)NC3C(=O)NC(C(=O)NC(C(=O)O)c4cc(O)cc(O)c4-c4cc3ccc4O)C(OC3CC(C)(NC(=O)OCOC(=O)C(N)CCCCN)C(O)C(C)O3)c3ccc(c(Cl)c3)Oc3cc2cc(c3OC2OC(CO)C(O)C(O)C2OC2CC(C)(NCc3ccc(-c4ccc(Cl)cc4)cc3)C(O)C(C)O2)Oc2ccc(cc2Cl)C1O)N(C)C(=O)OCOC(=O)C(N)CCCCN (stereo not shown) [Compound 46] | <0.5 mg/mL | 0.25 | 0.5 | 1 | 0.25 | 1 (≈ 0.455 µM) | within an order of magnitude of that of oritavancin 5 | – | – | – | – |
| CC(C)CC(C(=O)NC1C(=O)NC(CC(N)=O)C(=O)NC2C(=O)NC3C(=O)NC(C(=O)NC(C(=O)O)c4cc(O)cc(O)c4-c4cc3ccc4O)C(OC3CC(C)(N)C(O)C(C)O3)c3ccc(c(Cl)c3)Oc3cc2cc(c3OC2OC(CO)C(O)C(O)C2OC2CC(C)(NCc3ccc(-c4ccc(Cl)cc4)cc3)C(O)C(C)O2)Oc2ccc(cc2Cl)C1O)N(C)C(=O)OCc1ccc(OP(=O)(O)O)cc1 (stereo not shown) [Compound 70] | 8 mg/mL (≈ 3950 µM) | 1 | 32 | 32 | >32 | 2 (≈ 0.989 µM) | weaker activities | – | – | – | – |
| CC(C)CC(C(=O)NC1C(=O)NC(CC(N)=O)C(=O)NC2C(=O)NC3C(=O)NC(C(=O)NC(C(=O)O)c4cc(O)cc(O)c4-c4cc3ccc4O)C(OC3CC(C)(N)C(O)C(C)O3)c3ccc(c(Cl)c3)Oc3cc2cc(c3OC2OC(CO)C(O)C(O)C2OC2CC(C)(NCc3ccc(-c4ccc(Cl)cc4)cc3)C(O)C(C)O2)Oc2ccc(cc2Cl)C1O)N(C)C(=O)OCOC(=O)CCC(=O)N(CC(=O)O)CC(=O)O (stereo not shown) [Compound 20] | 5.5 mg/mL (≈ 2640 µM) | 4 | 16 | 16 | 2 | 4 (≈ 1.92 µM) | weaker activities | – | – | – | – |
| CNC(CC(C)C)C(=O)NC1C(=O)NC(CC(N)=O)C(=O)NC2C(=O)NC3C(=O)NC(C(=O)NC(C(=O)NCCCNCCCCNCCCN)c4cc(O)cc(O)c4-c4cc3ccc4O)C(OC3CC(C)(N)C(O)C(C)O3)c3ccc(c(Cl)c3)Oc3cc2cc(c3OC2OC(CO)C(O)C(O)C2OC2CC(C)(NCc3ccc(-c4ccc(Cl)cc4)cc3)C(O)C(C)O2)Oc2ccc(cc2Cl)C1O (stereo not shown) [Compound 24] | ≧100 mg/mL | 0.5 | 1 | 0.06 | 0.06 | 1 (≈ 0.506 µM) | within an order of magnitude of that of oritavancin 5 | – | – | – | – |
| CNC(CC(C)C)C(=O)NC1C(=O)NC(CC(N)=O)C(=O)NC2C(=O)NC3C(=O)NC(C(=O)NC(C(=O)OCC(=O)NCCCNCCCCNCCCN)c4cc(O)cc(O)c4-c4cc3ccc4O)C(OC3CC(C)(N)C(O)C(C)O3)c3ccc(c(Cl)c3)Oc3cc2cc(c3OC2OC(CO)C(O)C(O)C2OC2CC(C)(NCc3ccc(-c4ccc(Cl)cc4)cc3)C(O)C(C)O2)Oc2ccc(cc2Cl)C1O (stereo not shown) [Compound 28] | ≧100 mg/mL | 0.125 | 0.25 | 0.25 | 0.063 | 2 (≈ 0.983 µM) | within an order of magnitude of that of oritavancin 5 | – | – | – | – |
| CC(C)CC(C(=O)NC1C(=O)NC(CC(N)=O)C(=O)NC2C(=O)NC3C(=O)NC(C(=O)NC(C(=O)O)c4cc(O)cc(O)c4-c4cc3ccc4O)C(OC3CC(C)(N)C(O)C(C)O3)c3ccc(c(Cl)c3)Oc3cc2cc(c3OC2OC(CO)C(O)C(O)C2OC2CC(C)(NCc3ccc(-c4ccc(Cl)cc4)cc3)C(O)C(C)O2)Oc2ccc(cc2Cl)C1O)N(C)C(=O)CNC(=O)C(N)CCCCN (stereo not shown) [Compound 61] | <0.5 mg/mL | 0.25 | 0.25 | 1 | 0.5 | 2 (≈ 1.01 µM) | within an order of magnitude of that of oritavancin 5 | – | – | – | – |
| CC(C)CC(C(=O)NC1C(=O)NC(CC(N)=O)C(=O)NC2C(=O)NC3C(=O)NC(C(=O)NC(C(=O)O)c4cc(O)cc(O)c4-c4cc3ccc4O)C(OC3CC(C)(N)C(O)C(C)O3)c3ccc(c(Cl)c3)Oc3cc2cc(c3OC2OC(CO)C(O)C(O)C2OC2CC(C)(NCc3ccc(-c4ccc(Cl)cc4)cc3)C(O)C(C)O2)Oc2ccc(cc2Cl)C1O)N(C)C(=O)CCC(=O)N(CC(=O)O)CC(=O)O (stereo not shown) [Compound 13] | 5.5 mg/mL (≈ 2740 µM) | 2 | 64 | 64 | 32 | 4 (≈ 1.99 µM) | weaker activities | – | – | – | – |
| CC(C)CC(C(=O)NC1C(=O)NC(CC(N)=O)C(=O)NC2C(=O)NC3C(=O)NC(C(=O)NC(C(=O)O)c4cc(O)cc(O)c4-c4cc3ccc4O)C(OC3CC(C)(N)C(O)C(C)O3)c3ccc(c(Cl)c3)Oc3cc2cc(c3OC2OC(CO)C(O)C(O)C2OC2CC(C)(NCc3ccc(-c4ccc(Cl)cc4)cc3)C(O)C(C)O2)Oc2ccc(cc2Cl)C1O)N(C)C(=O)OCOC(=O)C(CCCCN)NC(=O)C(N)CCCCN (stereo not shown) [Compound 56] | >5 mg/mL | 0.5 | 4 | 0.5 | 0.25 | 2 (≈ 0.942 µM) | within an order of magnitude of that of oritavancin 5 | – | – | – | – |
